Source: patent publication US20230241196A1, “GONORRHEA SUBUNIT VACCINE” (priority 2020, published 2023)
≈ marks a conversion by molar mass, not a printed value. Marks after values point to notes of the source that are not given here.

B1: rMetQ: untagged recombinant N. gonorrhoeae FA1090 MetQ lacking the lipoprotein signal peptide; sequence in FIG. 8 (SEQ ID NO: 4) (protein, listed as Neisseria gonorrhoeae)
chain: GAMEKDSAPAASAAAPSADNGAAKKEIVFGTTVGDFGDMVKEQIQAELEKKGYTVKLVEFTDYVRPNLALAEGELDINVFQHKPYLDDFKKEHNLDITEAFQVPTAPLGLYPGKLKSLEEVKDGSTVSAPNDPSNFARALVMLNELGWIKLKDGINPLTASKADIAENLKNIKIVELEAAQLPRSRADVDFAVVNGNYAISSGMKLTEALFQEPSFAYVNWSAVKTADKDSQWLKDVTEAYNSDAFKAYAHKRFEGYKYPAAWNEGAAKKLAAA

Tests used:
[1] = test system: WT FA1090; experiment: Etest antibiotic susceptibility, WT strain; type: cell-based, Neisseria gonorrhoeae; settings: ~22 h, MIC repeated at least twice of three, unit assumed
Description: The henotypes associated with deletion of metQ were explored. […] It was first examined whether complete elimination of MetQ affects cell envelope homeostasis by exposing bacteria to seven antibiotics with different mechanisms of action using Etest assays.
(§1) Briefly, non-piliated colonies of each strain were suspended in GCBL to a turbidity equivalent to that of a 0.5 McFarland standard and spread on 150 mm tissue culture dishes filled with 50 mL GCB to a thickness of 4 mm. Etest strips were placed on the agar surface and plates were cultured for ~22 h, at which point the MICs were determined. Sensitivity assessments were performed three times, and MIC values that repeated at least twice are reported.

[2] = test system: isogenic knockout ΔmetQ (FA1090); experiment: Etest antibiotic susceptibility, ΔmetQ knockout; type: cell-based, Neisseria gonorrhoeae; settings: ~22 h, MIC repeated at least twice of three, unit assumed
Excerpt: (§2) Prokaryotic lipoproteins play versatile functions ranging from cell envelope stability to nutrient acquisition, substrate binding for ABC transporter systems, modulation of the host immune system, signal transduction, and virulence (Kovacs-Simon et al.Infect Immun 79, 548-561 (2011); Hayashi and Wu, PLoS pathogens 14, e1007081 (2018)). […] The henotypes associated with deletion of metQ were explored. A null mutant in ngo2139 ΔmetQ) and its complemented mutant ΔmetQ/Plac::metQ in Ng FA1090 were constructed (Zielke et al., Mol Cell Proteomics 15, 2338-2355 (2016)). It was first examined whether complete elimination of MetQ affects cell envelope homeostasis by exposing bacteria to seven antibiotics with different mechanisms of action using Etest assays.
as §1, with “Etest antimicrobial sensitivity assessments: The susceptibility of WT FA1090, isogenic knockout ΔmetQ, and complementation strain ΔmetQ/Plac: :metQ to seven antimicrobial compounds was assessed by Etests as previously (Zielke et al., PLoS pathogens 14, e1007081 (2018)), according to manufacturer’s instructions. Briefly,” for “Briefly,”

[3] = test system: complementation strain ΔmetQ/Plac::metQ (FA1090); experiment: Etest antibiotic susceptibility, complementation strain; type: cell-based, Neisseria gonorrhoeae; settings: ~22 h, MIC repeated at least twice of three
Excerpt: as §2
as §1, with “Etest antimicrobial sensitivity assessments: The susceptibility of WT FA1090, isogenic knockout ΔmetQ, and complementation strain ΔmetQ/Plac: :metQ to seven antimicrobial compounds was assessed by Etests as previously (Zielke et al., PLoS pathogens 14, e1007081 (2018)), according to manufacturer’s instructions. Briefly,” for “Briefly,”

[4] = test system: rMetQ; experiment: Pilot immunogenicity: immunoblot of rMetQ with serum of immunized mice; type: in vivo, Neisseria gonorrhoeae; settings: BALB/c mice, groups of 5; subcutaneous prime, three intranasal boosts
Description: First, the immunogenicity of rMetQ was tested by immunizing groups of 5 BALB/c mice with rMetQ, rMetQ-CpG, CpG, or PBS using a subcutaneous prime immunization, followed by a regimen of three intranasal boost doses. A robust, single protein band corresponding to the molecular weight of rMetQ (~30 kDa) was detected in immunoblots with serum derived from mice immunized with rMetQ alone. […] Based on these encouraging results, large-scale immunization/challenge experiments were performed. […] Vaginal washes were collected after the second boost, and antigen-specific antibody titers were assessed in serum collected 14 days after the third boost. […] Bacterial clearance was assessed by enumerating Ng CFUs present in vaginal washes on days 1, 3, 5, and 7 post-infection (FIG. 3C). […]
Densitometry analysis: The expression of MetQ during WT FA1090 infection in female BALB/c mice and intensities of protein bands detected in serum specificity studies were determined by densitometry using FIJI software (Schindelin et al., Nature methods 9, 676-682 (2012)). The amount of MetQ on day 1 post-infection was arbitrarily set to 1 and the protein abundance on days 3 and 5 is expressed relative to the MetQ cellular pool detected on day 1.

| Molecule | MIC (Etest) [1] [µg/mL] | MIC (Etest) [2] [µg/mL] | MIC (Etest) [3] | MIC (Etest) ([3]; unit assumed) [µg/mL] | Immunoblot intensity of rMetQ band probed with serum [4] |
| --- | --- | --- | --- | --- | --- |
| CC[C@H]1OC(=O)[C@H](C)[C@@H](O[C@H]2C[C@@](C)(OC)[C@@H](O)[C@H](C)O2)[C@H](C)[C@@H](O[C@@H]2O[C@H](C)C[C@H](N(C)C)[C@H]2O)[C@](C)(O)C[C@@H](C)CN(C)[C@H](C)[C@@H](O)[C@]1(C)O [Azithromycin] | 0.032 (≈ 0.0427 µM) | 0.032 (≈ 0.0427 µM) | 0.5^b | – | – |
| CO/N=C(\C(=O)N[C@@H]1C(=O)N2C(C(=O)O)=C(COC(C)=O)CS[C@H]12)c1csc(N)n1 [Cefotaxime] | 0.004 (≈ 0.00878 µM) | 0.004 (≈ 0.00878 µM) | – | 0.008 (≈ 0.0176 µM) | – |
| CN[C@H](CC(C)C)C(=O)N[C@H]1C(=O)N[C@@H](CC(N)=O)C(=O)N[C@H]2C(=O)N[C@H]3C(=O)N[C@H](C(=O)N[C@H](C(=O)O)c4cc(O)cc(O)c4-c4cc3ccc4O)[C@H](O)c3ccc(c(Cl)c3)Oc3cc2cc(c3O[C@@H]2O[C@H](CO)[C@@H](O)[C@H](O)[C@H]2O[C@H]2C[C@](C)(N)[C@H](O)[C@H](C)O2)Oc2ccc(cc2Cl)[C@H]1O [Vancomycin] | 8 (≈ 5.52 µM) | 8 (≈ 5.52 µM) | – | 8 (≈ 5.52 µM) | – |
| CC1(C)S[C@@H]2[C@H](NC(=O)Cc3ccccc3)C(=O)N2[C@H]1C(=O)O [Benzylpenicillin] | 0.064 (≈ 0.191 µM) | 0.064 (≈ 0.191 µM) | – | 0.064 (≈ 0.191 µM) | – |
| Polymyxin B | 64 | 64 | – | 64 | – |
| B1 | – | – | – | – | 44,405 relative intensity units |
